± gives the standard deviation of the averaged measurements.
Assays:
Test in all cases: level (log10 ratio to DMSO vehicle control); higher = higher biomarker level / cell amount than vehicle control
[1] = compound: O=C(O)C(F)(F)C(F)(F)C(F)(F)C(F)(F)C(F)(F)C(F)(F)C(F)(F)F [Ammonium perfluorooctanoate]; details: in DMSO
Method: (§1)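 BioMAP Diversity Plus panel of 12 human primary cell co-culture systems (3C, 4H, LPS, SAg, BT, BF4T, BE3C, CASM3C, HDF3CGF, KF3CT, MyoF, Mphg). Compounds were added 1 h before stimulation and left for 24 h (MyoF 48 h; BT 72 h for soluble read-outs or 6 d for IgG). Biomarkers were read by ELISA, cytotoxicity by SRB, PBMC viability and proliferation by Alamar Blue. Each well value was divided by the mean of 8 DMSO control wells on the same plate and log10 transformed; duplicate blinded samples were tested at 4 concentrations.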

[2] = compound: FC(F)(F)C(F)(F)C(F)(F)C(F)(F)CCI [1H,1H,2H,2H-Perfluorohexyl iodide]; details: in DMSO
Method: as §1

[3] = compound: C=C(C)C(=O)OCC(F)(F)C(F)(F)C(F)(F)F [2,2,3,3,4,4,4-Heptafluorobutyl methacrylate]; details: in DMSO
Method: as §1

[4] = compound: C=CC(=O)OCC(F)(F)C(F)(F)C(F)(F)C(F)(F)C(F)(F)C(F)(F)C(F)(F)C(F)F [1H,1H,9H-Perfluorononyl acrylate]; details: in DMSO
Method: as §1

[5] = compound: O=C(Cl)C(F)(F)C(F)(F)C(F)(F)C(=O)Cl [Hexafluoroglutaryl chloride]; details: in DMSO
Method: as §1

[6] = compound: OCC(F)(F)C(F)(F)C(F)(F)C(F)(F)C(F)(F)C(F)(F)C(F)(F)C(F)(F)CO [1H,1H,10H,10H-Perfluorodecane-1,10-diol]; details: in DMSO
Method: as §1

[7] = compound: OCCCC(F)(F)C(F)(F)C(F)(F)C(F)(F)C(F)(F)C(F)(F)C(F)(F)C(F)(F)F [3-(Perfluorooctyl)propanol]; details: 6700 nM; in DMSO
Method: as §1

Test System | level (log10) ([1]; 6700 nM) | level (log10) ([1]; 20000 nM) | level (log10) ([1]; 60000 nM) | level (log10) ([2]; 6700 nM) | level (log10) ([2]; 20000 nM) | level (log10) ([2]; 60000 nM) | level (log10) ([3]; 6700 nM) | level (log10) ([3]; 20000 nM) | level (log10) ([3]; 60000 nM) | level (log10) ([4]; 6700 nM) | level (log10) ([4]; 20000 nM) | level (log10) ([4]; 60000 nM) | level (log10) ([5]; 6700 nM) | level (log10) ([5]; 20000 nM) | level (log10) ([5]; 60000 nM) | level (log10) ([6]; 6700 nM) | level (log10) ([6]; 20000 nM) | level (log10) ([6]; 60000 nM) | level (log10) [7]
LPS:sTNF-alpha | 0.004 ± 0.0085 | 0.001 ± 0.0057 | -0.0135 ± 0.00071 | -0.003 ± 0.12 | 0.0385 ± 0.069 | 0.088 ± 0.071 | 0.005 ± 0.0057 | 0.018 ± 0.052 | 0.0415 ± 0.0092 | 0.085 ± 0.028 | 0.0465 ± 0.042 | 0.004 ± 0.086 | 0.046 ± 0.023 | 0.033 ± 0.0085 | 0.0465 ± 0.012 | -0.0915 ± 0.069 | -0.043 ± 0.0085 | -0.023 | -0.335 ± 0.2
SAg:CCL2/MCP-1 | -0.0035 ± 0.0035 | -0.007 ± 0.011 | 0.01 ± 0.034 | -0.0075 ± 0.015 | 0.004 ± 0.0014 | -0.015 ± 0.018 | 0.0075 ± 0.012 | -0.011 ± 0.0028 | 0.017 ± 0.011 | -0.0425 ± 0.015 | -0.0565 ± 0.005 | -0.033 ± 0.13 | -0.02 ± 0.017 | -0.004 ± 0.041 | 0.017 ± 0.051 | -0.0145 ± 0.0092 | -0.02 ± 0.0042 | -0.008 | -0.0025 ± 0.021
SAg:CD38 | -0.011 ± 0.018 | -0.0055 ± 0.0064 | -0.051 ± 0.017 | 0.009 ± 0.021 | -0.007 ± 0.0071 | -0.005 ± 0.031 | -0.0015 ± 0.03 | 0.007 ± 0.048 | 0.013 ± 0.068 | -0.0395 ± 0.035 | -0.0245 ± 0.0035 | -0.031 ± 0.011 | -0.021 ± 0.025 | -0.031 ± 0.034 | -0.031 ± 0.055 | -0.0275 ± 0.00071 | -0.04 ± 0.0099 | -0.027 | -0.017 ± 0.016
SAg:CD40 | -0.008 ± 0.011 | -0.022 | -0.0695 ± 0.011 | 0.019 ± 0.013 | 0.012 ± 0.0014 | -0.0185 ± 0.018 | -0.038 ± 0.02 | -0.032 ± 0.011 | -0.023 ± 0.025 | -0.027 ± 0.021 | -0.0725 ± 0.023 | -0.133 ± 0.026 | 0.0105 ± 0.042 | 0.0085 ± 0.0021 | -0.0085 ± 0.043 | -0.0395 ± 0.0078 | -0.0625 ± 0.028 | -0.081 | -0.029 ± 0.025
SAg:CD62E/E-Selectin | 0.0045 ± 0.0035 | 0.02 ± 0.013 | 0.035 ± 0.0014 | -0.0095 ± 0.005 | -0.014 ± 0.014 | -0.008 ± 0.018 | 0.0045 ± 0.039 | -0.0225 ± 0.011 | 0.0015 ± 0.019 | -0.0345 ± 0.016 | -0.0595 ± 0.015 | -0.121 ± 0.052 | -0.018 ± 0.03 | -0.024 ± 0.014 | -0.012 ± 0.0042 | -0.0215 ± 0.005 | -0.015 ± 0.0099 | -0.015 | -0.014 ± 0.0099
SAg:CD69 | -0.0115 ± 0.00071 | -0.026 ± 0.0014 | -0.062 ± 0.0085 | 0.0135 ± 0.015 | -0.003 ± 0.0014 | -0.0125 ± 0.005 | -0.016 ± 0.0099 | -0.0215 ± 0.0021 | -0.009 ± 0.0042 | -0.0475 ± 0.028 | -0.0395 ± 0.03 | -0.099 ± 0.018 | -0.009 ± 0.021 | -0.02 ± 0.018 | -0.015 ± 0.0028 | -0.042 ± 0.044 | -0.0685 ± 0.066 | -0.119 | -0.036 ± 0.014
SAg:CXCL8/IL-8 | -0.0325 ± 0.026 | 0.007 ± 0.013 | 0.127 ± 0.16 | 0.012 ± 0.0042 | -0.0035 ± 0.0092 | -0.006 ± 0.058 | -0.003 ± 0.061 | -0.002 ± 0.075 | 0.006 ± 0.02 | -0.068 ± 0.0028 | -0.0845 ± 0.026 | -0.0975 ± 0.14 | -0.024 ± 0.0071 | -0.029 ± 0.042 | 0.0065 ± 0.005 | -0.0125 ± 0.037 | -0.01 ± 0.018 | -0.051 | -0.0165 ± 0.028
SAg:CXCL9/MIG | -0.004 | 0.003 ± 0.013 | 0.009 ± 0.0085 | -0.0015 ± 0.005 | -0.006 ± 0.0085 | 0.009 ± 0.0028 | -0.004 ± 0.03 | 0.002 ± 0.011 | 0.009 ± 0.013 | -0.0135 ± 0.0021 | 0.003 ± 0.0099 | -0.0155 ± 0.0078 | 0 ± 0.016 | -0.0005 ± 0.011 | 0.013 ± 0.017 | -0.022 ± 0.0042 | 0.0005 ± 0.019 | -0.021 | -0.0205 ± 0.0078
SAg:PBMC Cytotoxicity | 0.011 ± 0.035 | 0.049 ± 0.011 | 0.052 ± 0.04 | 0.006 ± 0.03 | -0.0025 ± 0.03 | -0.093 ± 0.088 | -0.0105 ± 0.037 | 0.015 ± 0.011 | 0.0075 ± 0.044 | -0.015 ± 0.0057 | -0.0795 ± 0.0092 | -0.194 ± 0.1 | 0.0075 ± 0.0078 | -0.022 ± 0.018 | 0.0185 ± 0.021 | 0.009 | 0.0155 ± 0.036 | -0.155 | -0.003 ± 0.023
SAg:Proliferation | 0.002 ± 0.0085 | 0.0175 ± 0.029 | 0.044 ± 0.044 | -0.0205 ± 0.0078 | -0.043 ± 0.013 | -0.155 ± 0.014 | -0.042 ± 0.069 | -0.004 ± 0.03 | -0.0045 ± 0.033 | -0.024 ± 0.0014 | -0.166 ± 0.029 | -0.58 ± 0.14 | 0.0165 ± 0.026 | 0.0255 ± 0.013 | 0.001 ± 0.013 | -0.0135 ± 0.025 | -0.058 ± 0.013 | -0.048 | -0.005 ± 0.023
SAg:SRB | -0.013 ± 0.0042 | -0.012 ± 0.0057 | -0.034 ± 0.0042 | 0.0005 ± 0.0064 | -0.0005 ± 0.005 | 0.0035 ± 0.0078 | -0.0005 ± 0.0078 | 0.0035 ± 0.0035 | 0.002 ± 0.0099 | -0.0035 ± 0.0035 | -0.0055 ± 0.0021 | -0.007 ± 0.021 | -0.0025 ± 0.0035 | -0.0035 ± 0.0035 | 0.0045 ± 0.0021 | 0.001 ± 0.018 | -0.0145 ± 0.015 | -0.067 | -0.009 ± 0.0071

Source: the supplement of paper PMC10331698
